Data taken from US20260373042A1, “PEPTIDE HAVING ACTIVITY OF IMPROVING STATE OF SKIN, AND USE THEREOF” (CAREGEN CO., LTD., priority 2022, published 2026).

Key:
[1] = system: fibronectin; assay: Expression of fibronectin in NIH3T3 cells, RT-PCR; assay type: cell-based, mouse; settings: 50 μM or 1000 μM, 24 hours, vs untreated control, FIG. 2, 3B
Experimental: (§1) In this example, the aim was to confirm the effect of the peptide according to an example on improving endogenous skin aging, including improvement of wrinkles and enhancement of elasticity, etc., by evaluating the expression levels of collagen type 1 (Col1a1), fibronectin, or elastin, which are known components of the dermis.
(§2) Specifically, NIH3T3 cells were seeded in a 6-well plate at a density of 3×10^5 cells/well and cultured for 24 hours. Next, the cells were washed once with serum-free DMEM media, and 50 μM or 1000 μM of a peptide consisting of an amino acid sequence of SEQ ID NO: 1 was dispensed into 1 mL of the serum-free media, and cultured in a CO2 incubator at 37 °C for 24 hours. Next, the culture was washed twice with PBS, and RNA was isolated from the culture using easy blue (iNtRON, Korea). Using an RT kit (Enzynomics, Korea), 1 μg of the isolated RNA was reverse transcribed to synthesize the respective cDNA. Next, polymerase chain reaction (PCR) was performed using the cDNAs and primers Col1a1, fibronectin, and elastin. Meanwhile, an untreated group was used as a control group, and a group to which TGF-β1 was added (TGF-β1) was used as a positive control group, the nucleotide sequences of the primers used in this example are shown in Table 2 below.

[2] = system: HaCaT cells; assay: Proliferation (MTT survival rate) of HaCaT human keratinocytes; assay type: cell-based; settings: 50 μM or 100 μM, serum-free DMEM, 72 hours, MTT 540 nm, vs untreated control, FIG. 1B
Experimental: (§3) In this example, the aim was to confirm the effect of a peptide according to an example on proliferation of skin cells, by evaluating changes in survival rate of NIH3T3 cells, which are mouse fibroblasts, or HaCaT cells, which are human keratinocytes.
(§4) Specifically, NIH3T3 cells or HaCaT cells were seeded in a 96-well plate at a density of 5×10^3 cells/well and cultured for 24 hours. Next, the cells were washed once with serum-free DMEM media, and 50 μM or 100 μM of a peptide consisting of an amino acid sequence of SEQ ID NO: 1 was dispensed into 200 μL of the serum-free media, and cultured in a CO2 incubator at 37 °C for 72 hours. Next, the culture was washed twice with PBS, and 0.5 mg/ml of MTT (Sigma, Cat. No.: M2003, USA) solution was dispensed into each well. Next, after being shaded from light, it was cultured in a CO2 incubator at 37 °C for 4 hours. Next, the absorbance at 540 nm was measured. In this example, an untreated group was used as the control group, and a group to which insulin-like growth factor was added (IGF) was used as the positive control group.

[3] = system: Col1a1; assay: Expression of collagen type 1 (Col1a1) in NIH3T3 cells, RT-PCR; assay type: cell-based, mouse; settings: 50 μM or 1000 μM, 24 hours, vs untreated control, FIG. 2, 3A
Experimental: as §1, §2

[4] = system: NIH3T3 cells; assay: Proliferation (MTT survival rate) of NIH3T3 mouse fibroblasts; assay type: cell-based; settings: 50 μM or 100 μM, serum-free DMEM, 72 hours, MTT 540 nm, vs untreated control, FIG. 1A
Experimental: as §3, §4

[5] = system: NIH3T3 cells; assay: Reactive oxygen species increased by ultraviolet rays in NIH3T3 cells (DCFH-DA, flow cytometry); assay type: cell-based, mouse; settings: 50 μM or 1000 μM, UV 8 J/cm^2, 24 hours after UV, FIG. 6
Experimental: (§5) In this example, the aim was to confirm the effect of the peptide according to an embodiment on the antioxidant effect in damaged skin, by evaluating the change in the level of reactive oxygen species in skin cells increased by ultraviolet irradiation.
(§6) Specifically, NIH3T3 cells or HaCaT cells were seeded in a 6-well plate at a density of 5×10^5 cells/well and cultured for 24 hours. Next, the cells were washed once with serum-free DMEM media, and 50 μM or 1000 μM of a peptide consisting of an amino acid sequence of SEQ ID NO: 1 was dispensed into 1 mL of the serum-free media, and cultured in a CO2 incubator at 37 °C for […]. Next, the above culture was transferred to an e-tube, mixed with 1 ml of PBS, and dispensed into a well plate. Next, using a UV irradiator (VILBER LOURMAT, Cat No.: 3102-BSU, France), 8 J/cm^2 ultraviolet rays were irradiated to NIH3T3 cells, and 15 mJ/cm^2 ultraviolet rays were irradiated to HaCaT cells. Next, the PBS in the well plate was removed, 900 μL of the culture medium in which the peptides were dispensed was added, and the plate was cultured in a CO2 incubator at 37 °C for 24 hours. Next, the culture was treated with DCFH-DA (2′,7′-dichlorofluorescin diacetate), wrapped in foil, and cultured in a CO2 incubator at 37 °C for 30 minutes. […] After washing the centrifuged cells with PBS, fluorescence values were measured through flow cytometry (FACS, BD, USA). […]

[6] = system: SIRT-1; assay: Expression of sirtuin-1 (SIRT-1) in HaCaT cells, RT-PCR; assay type: cell-based, human; settings: 50 μM or 1000 μM, 24 hours, vs untreated control, FIG. 4, 5A
Experimental: (§7) In this example, the aim was to confirm the effect of the peptides according to an example on strengthening the skin barrier, by evaluating the expression levels of sirtuin-1 (SIRT-1) or aquaporin-3 (AQP3).
(§8) Specifically, HaCaT cells were seeded in a 6-well plate at a density of 3×10^5 cells/well and cultured for 24 hours. Next, the cells were washed once with serum-free DMEM media, and 50 μM or 1000 μM of a peptide consisting of an amino acid sequence of SEQ ID NO: 1 was dispensed into 1 mL of the serum-free media, and cultured in a CO2 incubator at 37 °C for 24 hours. Next, the culture was washed twice with PBS, and RNA was isolated from the culture using easy blue (iNtRON, Korea). Using an RT kit (Enzynomics, Korea), 1 μg of the isolated RNA was reverse transcribed to synthesize the respective cDNA. Next, polymerase chain reaction was performed using the cDNAs and primers sirtuin-1 and aquaporin-3. Meanwhile, an untreated group was used as a control group, and a group to which EGF was added (EGF) was used as a positive control group, the nucleotide sequences of the primers used in this example are shown in Table 3 below.

[7] = system: HaCaT cells; assay: Reactive oxygen species increased by ultraviolet rays in HaCaT cells (DCFH-DA, flow cytometry); assay type: cell-based, human; settings: 50 μM or 1000 μM, UV 15 mJ/cm^2, 24 hours after UV, FIG. 7
Experimental: as §5, §6

[8] = system: AQP3; assay: Expression of aquaporin-3 (AQP3) in HaCaT cells, RT-PCR; assay type: cell-based, human; settings: 50 μM or 1000 μM, 24 hours, vs untreated control, FIG. 4, 5B
Experimental: as §7, §8

[9] = system: elastin; assay: Expression of elastin in NIH3T3 cells, RT-PCR; assay type: cell-based, mouse; settings: 50 μM or 1000 μM, 24 hours, vs untreated control, FIG. 2, 3C
Experimental: as §1, §2

DGWNY [SEQ ID NO: 1]
promoted: proliferation of keratinocytes [2] | proliferation of fibroblasts [4]
increased: expression of fibronectin [1] | expression of Col1a1 [3] | expression of SIRT-1 [6] | expression of AQP3 [8] | expression of elastin [9]
reduced: level of reactive oxygen species in fibroblasts increased by ultraviolet irradiation [5] | level of reactive oxygen species in keratinocytes increased by ultraviolet irradiation [7]
